{"source": "patent US9962369B2", "about": "“Methods and compositions for transdermal delivery” (SPRAYABLE HOLDINGS, INC., priority 2014, dated 2018)", "test": "Transdermal delivery of melatonin: plasma level of melatonin after applying composition to skin of a subject", "details": "for concentration at 0 h / concentration at 1 h / concentration at 2 h / concentration at 0 hr / concentration at 1 hr / concentration at 2 hr / concentration at 4 hr / concentration at 8 hr / concentration at 4 h / concentration at 8 h: human, plasma, topical, 3 mg", "data": [{"smiles": "COc1ccc2[nH]cc(CCNC(C)=O)c2c1", "note": "[Melatonin]", "values": [{"measurement": "Plasma level of melatonin", "setting": "2-(Dimethylamino)ethyl 2-(4-isobutylphenyl)propionate hydrochloride 222.60 mM, 0.60 mL applied to skin, 1 hr after transdermal administration", "result": 1.5, "unit": "ng/mL"}, {"measurement": "Plasma level of melatonin", "setting": "2-(Dimethylamino)ethyl 2-(4-isobutylphenyl)propionate hydrochloride 222.60 mM, 0.60 mL applied to skin, 2 hr after transdermal administration", "result": 1.7, "unit": "ng/mL"}, {"measurement": "Plasma level of melatonin", "setting": "2-(Dimethylamino)ethyl 2-(4-isobutylphenyl)propionate hydrochloride 222.60 mM, 0.60 mL applied to skin, 4 hr after transdermal administration", "result": 1.6, "unit": "ng/mL"}, {"measurement": "Plasma level of melatonin", "setting": "2-(Dimethylamino)ethyl 2-(4-isobutylphenyl)propionate hydrochloride 222.60 mM, 0.60 mL applied to skin, 8 hr after transdermal administration", "result": 1.5, "unit": "ng/mL"}, {"measurement": "Plasma level of melatonin", "setting": "4-(Diethylamino)butyl 2-(4-isobutylphenyl)propionate hydrochloride 189.21 mM, 0.60 mL applied to skin, 0 hr after transdermal administration", "result": 0, "unit": "ng/mL"}, {"measurement": "Plasma level of melatonin", "setting": "4-(Diethylamino)butyl 2-(4-isobutylphenyl)propionate hydrochloride 189.21 mM, 0.60 mL applied to skin, 1 hr after transdermal administration", "result": 1.4, "unit": "ng/mL"}, {"measurement": "Plasma level of melatonin", "setting": "4-(Diethylamino)butyl 2-(4-isobutylphenyl)propionate hydrochloride 189.21 mM, 0.60 mL applied to skin, 2 hr after transdermal administration", "result": 1.5, "unit": "ng/mL"}, {"measurement": "Plasma level of melatonin", "setting": "4-(Diethylamino)butyl 2-(4-isobutylphenyl)propionate hydrochloride 189.21 mM, 0.60 mL applied to skin, 4 hr after transdermal administration", "result": 1.5, "unit": "ng/mL"}, {"measurement": "Plasma level of melatonin", "setting": "4-(Diethylamino)butyl 2-(4-isobutylphenyl)propionate hydrochloride 189.21 mM, 0.60 mL applied to skin, 8 hr after transdermal administration", "result": 1.3, "unit": "ng/mL"}, {"measurement": "Plasma level of melatonin", "setting": "5-(Diethylamino)pentyl 2-(4-isobutylphenyl)propionate hydrochloride 182.28 mM, 0.60 mL applied to skin, 1 hr after transdermal administration", "result": 1.6, "unit": "ng/mL"}, {"measurement": "Plasma level of melatonin", "setting": "5-(Diethylamino)pentyl 2-(4-isobutylphenyl)propionate hydrochloride 182.28 mM, 0.60 mL applied to skin, 2 hr after transdermal administration", "result": 1.9, "unit": "ng/mL"}, {"measurement": "Plasma level of melatonin", "setting": "5-(Diethylamino)pentyl 2-(4-isobutylphenyl)propionate hydrochloride 182.28 mM, 0.60 mL applied to skin, 4 hr after transdermal administration", "result": 1.9, "unit": "ng/mL"}, {"measurement": "Plasma level of melatonin", "setting": "5-(Diethylamino)pentyl 2-(4-isobutylphenyl)propionate hydrochloride 182.28 mM, 0.60 mL applied to skin, 8 hr after transdermal administration", "result": 1.7, "unit": "ng/mL"}, {"measurement": "Plasma level of melatonin", "setting": "Helper esters: None (0 mM), 2.0 mL applied to skin, 0 hr after transdermal administration", "result": 0.0, "unit": "ng/mL"}, {"measurement": "concentration at 0 h", "result": 0, "unit": "ng/mL"}, {"measurement": "concentration at 0 h", "setting": "Plasma level of melatonin, Helper esters: None (0 mM), 2.0 mL applied to skin, 0 hr after transdermal administration", "result": 0, "unit": "ng/mL"}, {"measurement": "concentration at 1 h", "setting": "Plasma level of melatonin, Helper esters: None (0 mM), 2.0 mL applied to skin, 1 hr after transdermal administration", "result": 0.1, "unit": "ng/mL"}, {"measurement": "concentration at 2 h", "setting": "Plasma level of melatonin, Helper esters: None (0 mM), 2.0 mL applied to skin, 2 hr after transdermal administration", "result": 0.1, "unit": "ng/mL"}, {"measurement": "concentration at 0 hr", "setting": "Plasma level of melatonin, Isoleucine hexyl ester 278.04 mM, 0.60 mL applied to skin, 0 hr after transdermal administration", "result": 0, "unit": "ng/mL"}, {"measurement": "concentration at 1 hr", "setting": "Plasma level of melatonin, Isoleucine hexyl ester 278.04 mM, 0.60 mL applied to skin, 1 hr after transdermal administration", "result": 1.2, "unit": "ng/mL"}, {"measurement": "concentration at 2 hr", "setting": "Plasma level of melatonin, Isoleucine hexyl ester 278.04 mM, 0.60 mL applied to skin, 2 hr after transdermal administration", "result": 1.3, "unit": "ng/mL"}, {"measurement": "concentration at 4 hr", "setting": "Plasma level of melatonin, Isoleucine hexyl ester 278.04 mM, 0.60 mL applied to skin, 4 hr after transdermal administration", "result": 1.4, "unit": "ng/mL"}, {"measurement": "concentration at 8 hr", "setting": "Plasma level of melatonin, Isoleucine hexyl ester 278.04 mM, 0.60 mL applied to skin, 8 hr after transdermal administration", "result": 1.3, "unit": "ng/mL"}, {"measurement": "concentration at 0 hr", "setting": "Plasma level of melatonin, Isoleucine isopropyl ester 333.76 mM, 0.60 mL applied to skin, 0 hr after transdermal administration", "result": 0, "unit": "ng/mL"}, {"measurement": "concentration at 1 hr", "setting": "Plasma level of melatonin, Isoleucine isopropyl ester 333.76 mM, 0.60 mL applied to skin, 1 hr after transdermal administration", "result": 1.7, "unit": "ng/mL"}, {"measurement": "concentration at 2 hr", "setting": "Plasma level of melatonin, Isoleucine isopropyl ester 333.76 mM, 0.60 mL applied to skin, 2 hr after transdermal administration", "result": 1.8, "unit": "ng/mL"}, {"measurement": "concentration at 4 hr", "setting": "Plasma level of melatonin, Isoleucine isopropyl ester 333.76 mM, 0.60 mL applied to skin, 4 hr after transdermal administration", "result": 1.9, "unit": "ng/mL"}, {"measurement": "concentration at 8 hr", "setting": "Plasma level of melatonin, Isoleucine isopropyl ester 333.76 mM, 0.60 mL applied to skin, 8 hr after transdermal administration", "result": 1.8, "unit": "ng/mL"}, {"measurement": "concentration at 0 h", "setting": "Plasma level of melatonin, Leucine hexyl ester hydrochloride 278.04 mM, 0.60 mL applied to skin, 0 hr after transdermal administration", "result": 0, "unit": "ng/mL"}, {"measurement": "concentration at 1 h", "setting": "Plasma level of melatonin, Leucine hexyl ester hydrochloride 278.04 mM, 0.60 mL applied to skin, 1 hr after transdermal administration", "result": 1.4, "unit": "ng/mL"}, {"measurement": "concentration at 2 h", "setting": "Plasma level of melatonin, Leucine hexyl ester hydrochloride 278.04 mM, 0.60 mL applied to skin, 2 hr after transdermal administration", "result": 1.5, "unit": "ng/mL"}, {"measurement": "concentration at 4 hr", "setting": "Plasma level of melatonin, Leucine hexyl ester hydrochloride 278.04 mM, 0.60 mL applied to skin, 4 hr after transdermal administration", "result": 1.5, "unit": "ng/mL"}, {"measurement": "concentration at 8 hr", "setting": "Plasma level of melatonin, Leucine hexyl ester hydrochloride 278.04 mM, 0.60 mL applied to skin, 8 hr after transdermal administration", "result": 1.3, "unit": "ng/mL"}, {"measurement": "concentration at 0 h", "setting": "Plasma level of melatonin, Leucine isopropyl ester hydrochloride 333.76 mM, 0.60 mL applied to skin, 0 hr after transdermal administration", "result": 0, "unit": "ng/mL"}, {"measurement": "concentration at 1 h", "setting": "Plasma level of melatonin, Leucine isopropyl ester hydrochloride 333.76 mM, 0.60 mL applied to skin, 1 hr after transdermal administration", "result": 1.7, "unit": "ng/mL"}, {"measurement": "concentration at 2 h", "setting": "Plasma level of melatonin, Leucine isopropyl ester hydrochloride 333.76 mM, 0.60 mL applied to skin, 2 hr after transdermal administration", "result": 1.8, "unit": "ng/mL"}, {"measurement": "concentration at 4 h", "setting": "Plasma level of melatonin, Leucine isopropyl ester hydrochloride 333.76 mM, 0.60 mL applied to skin, 4 hr after transdermal administration", "result": 1.9, "unit": "ng/mL"}, {"measurement": "concentration at 8 h", "setting": "Plasma level of melatonin, Leucine isopropyl ester hydrochloride 333.76 mM, 0.60 mL applied to skin, 8 hr after transdermal administration", "result": 1.8, "unit": "ng/mL"}, {"measurement": "concentration at 0 hr", "setting": "Plasma level of melatonin, Phenylalanine isopropyl ester hydrochloride 287.21 mM, 0.60 mL applied to skin, 0 hr after transdermal administration", "result": 0, "unit": "ng/mL"}, {"measurement": "concentration at 1 hr", "setting": "Plasma level of melatonin, Phenylalanine isopropyl ester hydrochloride 287.21 mM, 0.60 mL applied to skin, 1 hr after transdermal administration", "result": 1.6, "unit": "ng/mL"}, {"measurement": "concentration at 2 hr", "setting": "Plasma level of melatonin, Phenylalanine isopropyl ester hydrochloride 287.21 mM, 0.60 mL applied to skin, 2 hr after transdermal administration", "result": 1.7, "unit": "ng/mL"}, {"measurement": "concentration at 4 hr", "setting": "Plasma level of melatonin, Phenylalanine isopropyl ester hydrochloride 287.21 mM, 0.60 mL applied to skin, 4 hr after transdermal administration", "result": 1.6, "unit": "ng/mL"}, {"measurement": "concentration at 8 hr", "setting": "Plasma level of melatonin, Phenylalanine isopropyl ester hydrochloride 287.21 mM, 0.60 mL applied to skin, 8 hr after transdermal administration", "result": 1.7, "unit": "ng/mL"}, {"measurement": "concentration at 0 h", "setting": "Plasma level of melatonin, Phenylalanine octyl ester hydrochloride 223.02 mM, 0.60 mL applied to skin, 0 hr after transdermal administration", "result": 0, "unit": "ng/mL"}, {"measurement": "concentration at 1 h", "setting": "Plasma level of melatonin, Phenylalanine octyl ester hydrochloride 223.02 mM, 0.60 mL applied to skin, 1 hr after transdermal administration", "result": 1.3, "unit": "ng/mL"}, {"measurement": "concentration at 2 h", "setting": "Plasma level of melatonin, Phenylalanine octyl ester hydrochloride 223.02 mM, 0.60 mL applied to skin, 2 hr after transdermal administration", "result": 1.4, "unit": "ng/mL"}, {"measurement": "concentration at 4 h", "setting": "Plasma level of melatonin, Phenylalanine octyl ester hydrochloride 223.02 mM, 0.60 mL applied to skin, 4 hr after transdermal administration", "result": 1.3, "unit": "ng/mL"}, {"measurement": "concentration at 8 h", "setting": "Plasma level of melatonin, Phenylalanine octyl ester hydrochloride 223.02 mM, 0.60 mL applied to skin, 8 hr after transdermal administration", "result": 1.2, "unit": "ng/mL"}, {"measurement": "concentration at 0 hr", "setting": "Plasma level of melatonin, Table 20 control, A− N/A, helper esters 0 mM, 2.0 mL applied, 0 hr after transdermal administration", "result": 0, "unit": "ng/mL"}, {"measurement": "concentration at 1 hr", "setting": "Plasma level of melatonin, Table 20 control, A− N/A, helper esters 0 mM, 2.0 mL applied, 1 hr after transdermal administration", "result": 0.1, "unit": "ng/mL"}, {"measurement": "concentration at 2 h", "setting": "Plasma level of melatonin, Table 20 control, A− N/A, helper esters 0 mM, 2.0 mL applied, 2 hr after transdermal administration", "result": 0.1, "unit": "ng/mL"}]}]}
